Reference: patent US20230011269A1, “PHARMACEUTICAL COMPOSITION COMPRISING A POTENT INHIBITOR OF URAT1” (Ardea Biosciences, Inc., priority 2015, published 2023)
Values after ≈ are worked out from the molar mass of the structure shown. Read-outs that look alike come from different tables or passages of the source.

Legend:
[1] = Phase 1 study of MR formulations MR1-5: plasma pharmacokinetics; type: in vivo; settings: male, human, oral, 5 mg, MR1-MR5 formulations, fasted and fed (Table 9), read-out: average terminal half-life
Procedure: A Phase 1, randomized study to evaluated the PK, PD, and safety and tolerability of 2-((3-(4-cyanonaphthalen-1-yl)pyridine-4-yl)thio)-2-methylpropanoic acid MR formulations in n=12 healthy adult male subjects in fasted and fed states. This study evaluated a total of 5 MR formulations at a 5 mg dose. The MR formulations tested are those described in Examples 2-6. Plasma samples for PK analysis were collected at the following time points: Pre-dose (within 30 minutes before dosing) and at 0.25, 0.5, 0.75, 1, 1.5, 2, 2.5, 3, 4, 5, 6, 8, 10, 12, 24, 30, 36, 48, 54, 60 and 72 hours post-dose. A summary of the mean plasma pharmacokinetic parameters following administration of the MR compositions of 2-((3-(4-cyanonaphthalen-1-yl)pyridine-4-yl)thio)-2-methylpropanoic acid are provided in Table 9.

[2] = Phase 1 crossover study MR4 4 x 2.5 mg vs 10 mg tablet, food effect: plasma pharmacokinetics; settings: male, human, in vivo
Procedure: A Phase 1, randomized, open label, 4 way crossover PK and PD study in healthy adult male subjects designed to assess the relative bioavailability of 2-((3-(4-cyanonaphthalen-1-yl)pyridine-4-yl)thio)-2-methylpropanoic acid 2.5 mg MR tablets administered as a 10 mg dose (4×2.5 mg tablets) and a single 2-((3-(4-cyanonaphthalen-1-yl)pyridine-4-yl)thio)-2-methylpropanoic acid 10 mg MR tablet. The 10 mg MR tablet was prepared as described in Example 5a. This study also assessed the effect of a low fat and high fat meal on the PK and PD of 2-((3-(4-cyanonaphthalen-1-yl)pyridine-4-yl)thio)-2-methylpropanoic acid 10 mg MR tablets. Sixteen subjects were randomized to 1 of 4 treatment sequences. The treatments administered on Days 1 or 5 according to the randomization schedule were as follows: • Treatment A: 10 mg dose of 2-((3-(4-cyanonaphthalen-1-yl)pyridine-4-yl)thio)-2-methylpropanoic acid, administered as 4×2.5 mg ER tablets, in the fasted state. • Treatment B: 10 mg dose of 2-((3-(4-cyanonaphthalen-1-yl)pyridine-4-yl)thio)-2-methylpropanoic acid, administered as a single 10 mg ER tablet, in the fasted state. […]

[3] = aqueous equilibrium solubility at 37° C.; type: physicochemical; settings: aqueous media, thermodynamic from solid
Text: The solubility of 2-((3-(4-cyanonaphthalen-1-yl)pyridine-4-yl)thio)-2-methylpropanoic acid in aqueous media is highly dependent upon pH.

serum urate = test: Phase 1 single dose study, immediate release formulations: serum urate lowering; type: in vivo, human; settings: mean maximum observed percentage change from pre-dose in serum urate concentrations (Emax)
Text: A phase 1, randomized, double-blind, placebo-controlled study in healthy adult male volunteers evaluated single rising doses and the preliminary food effect for 2-((3-(4-cyanonaphthalen-1-yl)pyridine-4-yl)thio)-2-methylpropanoic acid at 6 dose groups with 8 subjects per group. […] Subjects in each dose group were randomized to receive a single dose of either 2-((3-(4-cyanonaphthalen-1-yl)pyridine-4-yl)thio)-2-methylpropanoic acid (6 subjects) or placebo (2 subjects). 2-((3-(4-cyanonaphthalen-1-yl)pyridine-4-yl)thio)-2-methylpropanoic acid was supplied as 1 mg oral solution, 2 mg oral solution, 5 mg tablets, or 20 mg tablets (depending on dose level).
The mean plasma concentration-time profiles for the IR formulations under fed and fasted conditions are depicted in FIGS. 3a and 3b. Absorption of 2-((3-(4-cyanonaphthalen-1-yl)pyridine-4-yl)thio)-2-methylpropanoic acid following a single oral dose under fasted conditions was rapid. […] When 2-((3-(4-cyanonaphthalen-1-yl)pyridine-4-yl)thio)-2-methylpropanoic acid was administered with food, slightly slower absorption and lower exposure were observed. […] Important pharmacodynamic parameters related to the serum Uric Acid lowering effects are shown in the following two tables: […]

In the case of `CC(C)(Sc1ccncc1-c1ccc(C#N)c2ccccc12)C(=O)O` [2-((3-(4-cyanonaphthalen-1-yl)pyridine-4-yl)thio)-2-methylpropanoic acid], the half-life [1] was 10 to 28 h, the “decrease of AUC∞ by a low-fat meal compared with the fasted state” value [2] was about 17% and the “decrease of Cmax by a low-fat meal compared with the fasted state” value [2] was “approximately 21%”. For the same compound, the solubility at 24 h ([3]; pH 1, simulated gastric fluid, 0.1N HCl, pH initial 1.1, pH (24 h) 1.0, read-out: Solubility after 24 hours) was 1480 µg/mL (≈ 4250 µM), the solubility at 48 h ([3]; pH 1.1, simulated gastric fluid, 0.1N HCl, pH initial 1.1, pH (48 h) 1.1, read-out: Solubility after 48 hours) was 1240 µg/mL (≈ 3550 µM) and the solubility at 24 h ([3]; pH 1.6, simulated gastric fluid, SGF pH 1.6, pH initial 1.6, pH (24 h) 1.4, read-out: Solubility after 24 hours) was 415 µg/mL (≈ 1190 µM). For the same compound, the solubility at 48 h ([3]; pH 1.6, simulated gastric fluid, SGF pH 1.6, pH initial 1.6, pH (48 h) 1.4, read-out: Solubility after 48 hours) was 398 µg/mL (≈ 1140 µM), the solubility at 24 h ([3]; pH 3, aqueous buffer, Citrate pH 3.0, pH initial 3.0, pH (24 h) 2.8, read-out: Solubility after 24 hours) was 66 µg/mL (≈ 189 µM) and the solubility at 48 h ([3]; pH 3, aqueous buffer, Citrate pH 3.0, pH initial 3.0, pH (48 h) 2.8, read-out: Solubility after 48 hours) was 65 µg/mL (≈ 187 µM). The solubility at 24 h ([3]; pH 4, aqueous buffer, Succinate pH 4.0, pH initial 4.0, pH (24 h) 3.9, read-out: Solubility after 24 hours) was 56 µg/mL (≈ 161 µM), the solubility at 48 h ([3]; pH 4, aqueous buffer, Succinate pH 4.0, pH initial 4.0, pH (48 h) 3.9, read-out: Solubility after 48 hours) was 55 µg/mL (≈ 158 µM) and the solubility at 24 h ([3]; pH 4.5, aqueous buffer, Acetate pH 4.5, pH initial 4.6, pH (24 h) 4.5, read-out: Solubility after 24 hours) was 70 µg/mL (≈ 201 µM). It also gave a solubility at 48 h ([3]; pH 4.5, aqueous buffer, Acetate pH 4.5, pH initial 4.6, pH (48 h) 4.5, read-out: Solubility after 48 hours) of 65 µg/mL (≈ 187 µM), a solubility at 24 h ([3]; pH 5, aqueous buffer, Citrate pH 5.0, pH initial 5.0, pH (24 h) 5.0, read-out: Solubility after 24 hours) of 97 µg/mL (≈ 278 µM) and a solubility at 48 h ([3]; pH 5, aqueous buffer, Citrate pH 5.0, pH initial 5.0, pH (48 h) 4.9, read-out: Solubility after 48 hours) of 95 µg/mL (≈ 273 µM). For the same compound, the solubility at 48 h ([3]; pH 5.3, water, Water, pH initial 6.3, pH (48 h) 5.3, read-out: Solubility after 48 hours) was 132 µg/mL (≈ 379 µM), the solubility at 24 h ([3]; pH 5.4, water, Water, pH initial 6.3, pH (24 h) 5.4, read-out: Solubility after 24 hours) was 148 µg/mL (≈ 425 µM) and the solubility at 24 h ([3]; pH 6, aqueous buffer, Histidine pH 6.0, pH initial 6.1, pH (24 h) 5.8, read-out: Solubility after 24 hours) was 532 µg/mL (≈ 1530 µM). It also gave a solubility at 48 h ([3]; pH 6, aqueous buffer, Histidine pH 6.0, pH initial 6.1, pH (48 h) 5.8, read-out: Solubility after 48 hours) of 485 µg/mL (≈ 1390 µM), a solubility at 24 h ([3]; pH 6.8, aqueous buffer, Potassium phosphate pH 6.8, pH initial 6.9, pH (24 h) 6.6, read-out: Solubility after 24 hours) of 2370 µg/mL (≈ 6800 µM) and a solubility at 48 h ([3]; pH 6.8, aqueous buffer, Potassium phosphate pH 6.8, pH initial 6.9, pH (48 h) 6.5, read-out: Solubility after 48 hours) of 2710 µg/mL (≈ 7770 µM). It also gave a solubility at 24 h ([3]; pH 6.9, aqueous buffer, 0.03N NaOH, pH initial 12.3, pH (24 h) 6.9, read-out: Solubility after 24 hours) of 10600 µg/mL (≈ 30300 µM), a solubility at 48 h ([3]; pH 6.9, aqueous buffer, 0.03N NaOH, pH initial 12.3, pH (48 h) 6.9, read-out: Solubility after 48 hours) of 10300 µg/mL (≈ 29400 µM) and a solubility at 48 h ([3]; pH 7, aqueous buffer, 0.1N NaOH, pH initial 12.8, pH (48 h) 7.0, read-out: Solubility after 48 hours) of 33500 µg/mL (≈ 96100 µM). The solubility at 24 h ([3]; pH 7, aqueous buffer, Sodium phosphate pH 7.0, pH initial 7.0, pH (24 h) 6.7, read-out: Solubility after 24 hours) was 3520 µg/mL (≈ 10100 µM), the solubility at 48 h ([3]; pH 7, aqueous buffer, Sodium phosphate pH 7.0, pH initial 7.0, pH (48 h) 6.6, read-out: Solubility after 48 hours) was 3620 µg/mL (≈ 10400 µM) and the solubility at 24 h ([3]; pH 7.1, aqueous buffer, 0.1N NaOH, pH initial 12.8, pH (24 h) 7.1, read-out: Solubility after 24 hours) was 31900 µg/mL (≈ 91500 µM). For the same compound, the solubility at 48 h ([3]; pH 7.4, aqueous buffer, 0.3N NaOH, pH initial 13.2, pH (48 h) 7.4, read-out: Solubility after 48 hours) was 93600 µg/mL (≈ 269000 µM), the solubility at 24 h ([3]; pH 11.7, aqueous buffer, 0.3N NaOH, pH initial 13.2, pH (24 h) 11.7, read-out: Solubility after 24 hours) was 87800 µg/mL (≈ 252000 µM) and the “Mean % change in sUA from predose” value (serum urate; 2 mg/Fasted) was 8%. For the same compound, the “Mean % change in sUA from predose” value (serum urate; 5 mg/Fasted) was 15%, the “Mean % change in sUA from predose” value (serum urate; 20 mg/Fasted) was 43% and the “Mean % change in sUA from predose” value (serum urate; 40 mg/Fasted) was 58%.
